Measurements published in patent US20230393140A1, “BINDING ASSAYS INVOLVING A PLURALITY OF SYNTHETIC COMPOUNDS, TARGETS, AND COUNTER TARGETS” (SRI International, priority 2020, published 2023).
Read-outs that look alike come from different tables or passages of the source. Numbered stars: 1 amine (or outer) side, 2 acyl side, 3 side chain; on linkers, the order of the positions; unused ones are H or OH. Square brackets hold non-standard residues; d marks the D form. Peptide text beside a SMILES is read from it. * marks the point of attachment. 5FAM = O=C1OC2(c3ccc(O)cc3Oc3cc(O)ccc32)c2ccc(C(=O)*)cc21; NHCH2C6H4(4-CH2CONH2) = NC(=O)Cc1ccc(CN*)cc1; X1 = O=C(Cc1ccc(CN[*:1])cc1)[*:2]

Assays:
[1] = target: T1, cRaf/K-Ras (G12V) PPI (Homo sapiens, UniProt P01116, G12V); experiment: K-Ras-cRaf HTRF-based PPI profiling; format: biochemical; conditions: for blank corrected HTRF: raw data, compounds without fluorescein;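 for blank corrected HTRF: background is the signal of wells with all components except cRaf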
T1 construct: b-Kras G12V (GppNHp) (aa 2-169); biotin (b-
Procedure: In some experimental embodiments, a buffer was added to the assay wells which included […] HEPES pH 7.4, 150 mM NaCl, 5 mM MgCl2, 1 mM DTT, 0.005% NP40, and 1% DMSO. 5 uL of 3×K-Ras protein was then added to the assay wells, followed by the synthetic compounds which were added using acoustic technology (ECHO, Labcyte) followed by thirty minutes incubation at room temperature. Afterwards, 5 uL of 3×cRaf protein was added to the assay wells and 5 uL of detection mix was then added to the assay wells after 30 minutes. The detection mix included Mab anti-GST-Tb cryptate (Cisbio 61GSTTLB) and streptavidin-XL665 (Ex/Em=(337/665; 620) in PHERAstar (BMG Labtech)). HTRF signal was measured […] later.
The data includes raw data (signal-background without cRaf protein but with all other component), % binding (relative to DMSO controls), and curve fits. Curve fits were performed when the activities at the highest concentration of the synthetic compounds were less than 65%. Tables 18A-18B below includes the raw data (e.g., blank corrected HTRF) and Tables 19A-19B includes the % binding.

[2] = target: T2, K-Ras (Homo sapiens, UniProt P01116, G12V); experiment: MST binding affinity of resynthesized NNP hits to K-Ras
T2 construct: purchased Cytoskeleton Inc. CS-RS04
Procedure: Loading was performed according to the following protocol: The 200 μM stock solution of the target protein was diluted to 10 μM in 20 mM HEPES pH 8.0, 150 mM NaCl, 10 mM MgCl2, 1 mM TCEP, 0.05% Tween-20 (total volume 110 μL). 10 μL were set aside for later labeling quality control. EDTA pH 8.0 (stock concentration 10 mM) was added to the protein solution to a final concentration of 80 μM. GTP (stock concentration 50 mM) was added to the protein solution to a final concentration of 750 μM. The solution was incubated at 30° C. for 2 hours (PCR tube) and then placed on ice for 2 minutes. MgCl2 was added to the protein solution to a final concentration of 100 mM. The resulting protein solution was buffer exchanged into the buffer required in the labeling kit for labeling. […] All the other target molecules (TNFα, IL-6, IL-6R and ASGPR) were used as received without any additional treatment.
Hit binding affinity to various targets were determined using Microscale Thermophoresis (MST). MST experiments were performed on a Monolith NT.115pico (NanoTemper Technologies GmbH, Munich, Germany). Measurements were performed at room temperature, in triplicate with incubation periods of 15, 30 and 45 minutes. […] Targets were labeled using Nanotemper Monolith 2nd Generation Protein Labeling Kits. RED-MALEIMIDE (Maleimide-647-dye) labeling kit was used for K-Ras and RED-NHS (NHS-647-dye) labeling kit was used for IL-6, IL-6R, TNFα and ASGPR. The buffer for the ASGPR contained 20 mM HEPES pH 7.4, 150 mM NaCl, 10 mM MgCl2, 2 mM CaCl2, 0.05% Pluronic F-127, and 1 mM DTT; for IL-6 contained 20 mM HEPES pH 7.4, 150 mM KCl, 10 mM MgCl2, and 0.1% Pluronic F-127; for the soluble IL-6 receptor 20 mM HEPES pH 7.4, 150 mM NaCl, 10 mM MgCl2, and 0.05% Tween-20; for K-Ras 20 mM HEPES pH 7.4, 150 mM NaCl, 10 mM MgCl2, 0.05% Tween-20 and 1 mM DTT; for TNFα 10 mM HEPES pH 7.4, 150 mM NaCl, 10 mM MgCl2, 0.05% Polysorbate-20. Triplicate data was analyzed using MO.AffinityAnalysis software (NanoTemper Technologies GmbH).

[3] = read-out: KD (nM) [95% conf. int], MST, NNP1 library hit, target K-Ras, one-site binding model

CC(C)[C@H](NC(=O)[C@@H](Cc1ccc(O)cc1)NC(=O)[C@@H](Cc1c[nH]cn1)NC(=O)[C@H]1CCCN1C(=O)[C@@H](Cc1c[nH]c2ccccc12)NC(=O)c1ccc2c(c1)C(=O)OC21c2ccc(O)cc2Oc2cc(O)ccc21)C(=O)NCc1ccc(CC(=O)NCC(=O)N[C@@H](C(=O)N2CCC[C@@H]2C(=O)N[C@H](CCCNC(=N)N)C(=O)N[C@@H](C)C(=O)NCc2ccc(CC(=O)N3CCC[C@@H]3C(=O)N[C@H](CO)C(=O)N[C@H](CCC(=O)O)C(=O)N[C@H](CCCNC(=N)N)C(=O)NCC(=O)NCc3ccc(CC(=O)N4CCC[C@@H]4C(=O)N[C@H](CCCCN)C(=O)N[C@H](Cc4ccc(O)cc4)C(=O)N[C@H](CCCNC(=N)N)C(=O)N[C@@H](Cc4ccccc4)C(=O)NCc4ccc(CC(=O)N[C@H](CO)C(=O)N[C@H](CO)C(=O)NCC(=O)N[C@H](CC(N)=O)C(=O)N[C@@H](Cc5ccccc5)C(=O)NCc5ccc(CC(=O)NCC(=O)N[C@H](Cc6c[nH]c7ccccc67)C(=O)N[C@H](Cc6c[nH]cn6)C(=O)N[C@H](CCCNC(=N)N)C(=O)N[C@@H](C)C(=O)NCc6ccc(CC(N)=O)cc6)cc5)cc4)cc3)cc2)C(C)C)cc1 [KRAS-1-1] (5FAM-[dW][dP][dH][dY]V[X1]G[dV][dP][dR]A[X1][dP][dS][dE][dR]G[X1][dP][dK][dY][dR]F[X1][dS][dS]G[dN]F[X1]G[dW][dH][dR]A-{NHCH2C6H4(4-CH2CONH2)})
HillSlope ([1]; curve fit of % binding, K-Ras G12V 30 nM, GST-cRaf 10 nM): −0.7155
blank corrected HTRF ([1]; conc. 1.00E−05): 4849
blank corrected HTRF ([1]; conc. 1.11E−06): 6589
blank corrected HTRF ([1]; conc. 1.23E−07): 12756
blank corrected HTRF ([1]; conc. 1.37E−08): 14500
blank corrected HTRF ([1]; conc. 3.33E−06): 5282
blank corrected HTRF ([1]; conc. 3.70E−07): 11981
blank corrected HTRF ([1]; conc. 4.12E−08): 14675
blank corrected HTRF ([1]; conc. 5.08E−10): 13672
Kd ([2]; K-Ras, compound with fluorescein on N-term, read-out: KD[nM] in MST (with fluorescein on N-term)): 24 nM
Kd [2, 3]: 24 nM

CC(C)[C@H](NC(=O)[C@@H](Cc1c[nH]c2ccccc12)NC(=O)[C@H]1CCCN1C(=O)[C@@H](Cc1c[nH]cn1)NC(=O)[C@@H](Cc1ccc(O)cc1)NC(=O)c1ccc2c(c1)C(=O)OC21c2ccc(O)cc2Oc2cc(O)ccc21)C(=O)NCc1ccc(CC(=O)NCC(=O)N[C@H](CCCCN)C(=O)N[C@H](Cc2c[nH]cn2)C(=O)N[C@H](CC(N)=O)C(=O)N[C@@H](Cc2ccccc2)C(=O)NCc2ccc(CC(=O)N3CCC[C@@H]3C(=O)N[C@H](CO)C(=O)N[C@H](CCC(=O)O)C(=O)N[C@H](CCCNC(=N)N)C(=O)NCC(=O)NCc3ccc(CC(=O)N4CCC[C@@H]4C(=O)N[C@H](CCCCN)C(=O)N[C@H](Cc4ccc(O)cc4)C(=O)N[C@H](CCCNC(=N)N)C(=O)N[C@@H](Cc4ccccc4)C(=O)NCc4ccc(CC(=O)N5CCC[C@@H]5C(=O)NCC(=O)N[C@H](CCCNC(=N)N)C(=O)N[C@H](Cc5c[nH]c6ccccc56)C(=O)NCC(=O)NCc5ccc(CC(=O)N[C@H](Cc6ccc(O)cc6)C(=O)N6CCC[C@@H]6C(=O)N[C@H](CCCNC(=N)N)C(=O)N[C@H](CCC(=O)O)C(=O)NCC(=O)NCc6ccc(CC(N)=O)cc6)cc5)cc4)cc3)cc2)cc1 [KRAS-1-11] (5FAM-[dY][dH][dP][dW]V[X1]G[dK][dH][dN]F[X1][dP][dS][dE][dR]G[X1][dP][dK][dY][dR]F[X1][dP]G[dR][dW]G[X1][dY][dP][dR][dE]G-{NHCH2C6H4(4-CH2CONH2)})
Kd [2, 3]: 60 nM

CC(C)C[C@H](NC(=O)[C@@H](CCCNC(=N)N)NC(=O)[C@@H](CCCCN)NC(=O)[C@@H](CCC(=O)O)NC(=O)[C@@H](Cc1ccccc1)NC(=O)Cc1ccc(CNC(=O)[C@H](Cc2ccccc2)NC(=O)[C@@H](CO)NC(=O)[C@@H](CCC(=O)O)NC(=O)[C@H]2CCCN2C(=O)[C@@H](CC(C)C)NC(=O)c2ccc3c(c2)C(=O)OC32c3ccc(O)cc3Oc3cc(O)ccc32)cc1)C(=O)NCc1ccc(CC(=O)N2CCC[C@@H]2C(=O)N[C@H](CO)C(=O)N[C@H](CCC(=O)O)C(=O)N[C@H](CCCNC(=N)N)C(=O)NCC(=O)NCc2ccc(CC(=O)N3CCC[C@@H]3C(=O)N[C@H](CCCCN)C(=O)N[C@H](Cc3ccc(O)cc3)C(=O)N[C@H](CCCNC(=N)N)C(=O)N[C@@H](Cc3ccccc3)C(=O)NCc3ccc(CC(=O)N4CCC[C@@H]4C(=O)NCC(=O)N[C@H](CCCNC(=N)N)C(=O)N[C@H](Cc4c[nH]c5ccccc45)C(=O)NCC(=O)NCc4ccc(CC(=O)NCC(=O)N[C@H](Cc5c[nH]c6ccccc56)C(=O)N[C@H](Cc5c[nH]cn5)C(=O)N[C@H](CCCNC(=N)N)C(=O)N[C@@H](C)C(=O)NCc5ccc(CC(N)=O)cc5)cc4)cc3)cc2)cc1 [KRAS-1-12] (5FAM-[dL][dP][dE][dS]F[X1][dF][dE][dK][dR]L[X1][dP][dS][dE][dR]G[X1][dP][dK][dY][dR]F[X1][dP]G[dR][dW]G[X1]G[dW][dH][dR]A-{NHCH2C6H4(4-CH2CONH2)})
Kd [2, 3]: 24 nM

CC(C)C[C@H](NC(=O)[C@@H](CCCNC(=N)N)NC(=O)[C@@H](CCCCN)NC(=O)[C@@H](CCC(=O)O)NC(=O)[C@@H](Cc1ccccc1)NC(=O)Cc1ccc(CNC(=O)[C@@H](NC(=O)[C@@H](Cc2ccc(O)cc2)NC(=O)[C@@H](Cc2c[nH]cn2)NC(=O)[C@H]2CCCN2C(=O)[C@@H](Cc2c[nH]c3ccccc23)NC(=O)c2ccc3c(c2)C(=O)OC32c3ccc(O)cc3Oc3cc(O)ccc32)C(C)C)cc1)C(=O)NCc1ccc(CC(=O)N2CCC[C@@H]2C(=O)N[C@H](CO)C(=O)N[C@H](CCC(=O)O)C(=O)N[C@H](CCCNC(=N)N)C(=O)NCC(=O)NCc2ccc(CC(=O)N3CCC[C@@H]3C(=O)N[C@H](CCCCN)C(=O)N[C@H](Cc3ccc(O)cc3)C(=O)N[C@H](CCCNC(=N)N)C(=O)N[C@@H](Cc3ccccc3)C(=O)NCc3ccc(CC(=O)N4CCC[C@@H]4C(=O)NCC(=O)N[C@H](CCCNC(=N)N)C(=O)N[C@H](Cc4c[nH]c5ccccc45)C(=O)NCC(=O)NCc4ccc(CC(=O)N[C@H](Cc5c[nH]cn5)C(=O)N[C@H](Cc5ccc(O)cc5)C(=O)N[C@H](CO)C(=O)N[C@H](CCC(=O)O)C(=O)N[C@@H](Cc5ccccc5)C(=O)NCc5ccc(CC(N)=O)cc5)cc4)cc3)cc2)cc1 [KRAS-1-15] (5FAM-[dW][dP][dH][dY]V[X1][dF][dE][dK][dR]L[X1][dP][dS][dE][dR]G[X1][dP][dK][dY][dR]F[X1][dP]G[dR][dW]G[X1][dH][dY][dS][dE]F-{NHCH2C6H4(4-CH2CONH2)})
Kd [2, 3]: 180 nM
